Experimental data reported in patent publication EP0501641A1, “L-2-oxothiazolidine-4-carboxylate and glutathion esters for the treatment of hepatic diseases” (CLINTEC NUTRITION COMPANY, priority 1991, dated 1992).

Assay: Example 3: post liver transplant supplementation with glutathione methyl ester tablets, plasma glutathione monitored
Format: in vivo
Conditions: tablet t.i.d. containing 0.5 g, Normal Range 4.5
From the text: A person with primary biliary cirrhosis underwent liver transplant. In addition to routine post-surgery immuno-suppressive and nutritional therapies the patient received a glutathione-containing tablet t.i.d. containing 0.5 g glutathione methyl ester. The goal of the therapy was to normalize plasma and tissue glutathione status.
Plasma glutathione concentration was monitored periodically; values for Week 1 and Week 12 are given below: […]

## COC(=O)CNC(=O)[C@H](CS)NC(=O)CC[C@H](N)C(=O)O [glutathione methyl ester]
Week 1, person after liver transplant
  Plasma Glutathione: 1.2 µM
Week 12
  Plasma Glutathione: 3.9 µM
